Assay results taken from patent US20190092761A1, “Methods and Compositions for Inhibition of Bromodomain and Extratermial Proteins” (Convergene LLC, priority 2014, published 2019).

What follows are molecules tested against T1, BRD4 bromodomains (Homo sapiens, UniProt O60885) (assay: BROMOscan bromodomain binding assay). Conditions: Kd classes; BRD4 bromodomains displayed on T7 phage, competition with acetylated peptide ligand, 11 concentrations 0 to 10 μM; read-out: BROMOscan Relative Activity.
T1 construct: fused on or other part: T7 phage capsid protein (fusion for phage display)
Experimental: Bromodomain assays were conducted to measure interactions between certain compounds and bromodomains. In order to measure compounds' direct activity against BRD4, dissociation constants ([…]) of the bromodomain inhibitors of the present invention were obtained using a biophysical binding assay, BROMOscan℠ (DiscoveRx, San Diego, Calif.), a modified phage-display system originally developed for kinases (Nat Biotechnol. 2005 March; 23(3):329-36).
The assays were conducted according to BROMOscan protocol from Discover Rx. Briefly, BRD4 bromodomains expressed as a fusion capsid protein of T7 phage were bound to acetylated peptide ligand on a solid phase and competition bindings were performed. T7 phage strains displaying bromodomains were grown in parallel in 24-well blocks in an E. coli host derived from the BL21 strain. E. coli were grown to log-phase and infected with T7 phage from a frozen stock (multiplicity of infection=0.4) and incubated with shaking at 32° C. until lysis (90-150 minutes). The lysates were centrifuged (5,000×g) and filtered (0.2 μm) to remove cell debris. Streptavidin-coated magnetic beads were treated with biotinylated small molecule or acetylated peptide ligands for 30 minutes at room temperature to generate affinity resins for bromodomain assays. The liganded beads were blocked with excess biotin and washed with blocking buffer (SeaBlock (Pierce), 1% BSA, 0.05% Tween 20, 1 mM DTT) to remove unbound ligand and to reduce non-specific phage binding. Binding reactions were assembled by combining bromodomains, liganded affinity beads, and test compounds in 1× binding buffer (17% SeaBlock, 0.33×PBS, 0.04% Tween 20, 0.02% BSA, 0.004% Sodium azide, 7.4 mM DTT). Test compounds were prepared as 1000× stocks in 100% DMSO and subsequently diluted 1:10 in monoethylene glycol (MEG) to create stocks at 100× the screening concentration (resulting stock solution is 10% DMSO/90% MEG). The compounds were then diluted directly into the assays such that the final concentration of DMSO and MEG were 0.1% and 0.9%, respectively. All reactions were performed in polystyrene 96-well plates in a final volume of 0.135 ml. The assay plates were incubated at room temperature with shaking for 1 hour and the affinity beads were washed with wash buffer (1×PBS, 0.05% Tween 20). The beads were then re-suspended in elution buffer (1×PBS, 0.05% Tween 20, 2 μM non-biotinylated affinity ligand) and incubated at room temperature with shaking for 30 minutes. The bromodomain concentration in the eluates was measured by qPCR. Data was collected at 11 compound concentrations ranging from 0 to 10 μM. Kd values were then derived from a standard dose-response curve generated with Hill equation (Hill Slope was set to −1) and a non-linear least square fit with the Levenberg-Marquardt algorithm.
Response=Background+Signal−Background/1+(Kd Hill Slope/Dose Hill Slope)
Data is reported in Table 3 as Relative Activity, wherein a Kd of less than 100 nM is denoted by (+++), a Kd of between 100 nM and 1 μM is denoted by (++), and a Kd of 1 μM to greater than 10 μM is denoted by (+).

Kd	SMILES
< 100 nM	Cc1noc(C)c1-c1ccc2[nH]c(=O)cc(NN3CCc4ccccc4C3)c2c1 [Example 1]
< 100 nM	Cc1noc(C)c1-c1ccc2[nH]c(=O)cc(NN(C)c3ccccc3)c2c1 [Example 5, 6-(3,5-dimethylisoxazol-4-yl)-4-(2-methyl-2-phenylhydrazinyl)-quinolin-2(1H)-one]
< 100 nM	Cc1noc(C)c1-c1ccc2[nH]c(=O)cc(NN(CC(=O)O)c3ccccc3)c2c1 [Example 6]
< 100 nM	CC(=O)N(Nc1cc(=O)[nH]c2ccc(-c3c(C)noc3C)cc12)c1ccccc1 [Example 7]
< 100 nM	Cc1noc(C)c1-c1cc2[nH]c(=O)c(C)c(NNc3ccccc3Cl)c2cc1-c1c(C)noc1C [Example 60]
< 100 nM	Cc1noc(C)c1-c1ccc2[nH]c(=O)cc(NCc3cccc(Cl)c3)c2c1 [Example 108]
< 100 nM	Cc1noc(C)c1-c1ccc2[nH]c(=O)cc(NCc3cccc(Br)c3)c2c1 [Example 112]
< 100 nM	COc1cccc(CNc2cc(=O)[nH]c3ccc(-c4c(C)noc4C)cc23)c1 [Example 116]
100 to 1000 nM	Cc1noc(C)c1-c1ccc2[nH]c(=O)cc(NCc3cccc(C(F)(F)F)c3)c2c1 [Example 120]
100 to 1000 nM	Cc1noc(C)c1-c1ccc2[nH]c(=O)cc(NCc3cc(Cl)cc(Cl)c3)c2c1 [Example 124]
100 to 1000 nM	Cc1noc(C)c1-c1ccc2[nH]c(=O)cc(NCc3ccc(Cl)cc3Cl)c2c1 [Example 128]
100 to 1000 nM	Cc1noc(C)c1-c1ccc2[nH]c(=O)cc(NCc3ccc(Cl)cc3)c2c1 [Example 132]
100 to 1000 nM	Cc1noc(C)c1-c1ccc2[nH]c(=O)cc(NCc3ccc(-c4ccccc4)cc3)c2c1 [Example 140]
100 to 1000 nM	Cc1noc(C)c1-c1ccc2[nH]c(=O)cc(NCC3CCCCC3)c2c1 [Example 144]
< 100 nM	Cc1noc(C)c1-c1cc2c(NCc3ccccc3)cc(=O)[nH]c2cc1C(=O)N(C)C [Example 160, 4-(benzylamino)-6-(3,5-dimethylisoxazol-4-yl)-N,N-dimethyl-2-oxo-1,2-dihydroquinoline-7-carboxamide]
< 100 nM	Cc1noc(C)c1-c1cc2c(NCc3ccccc3)cc(=O)[nH]c2cc1C(N)=O [Example 161, 4-(benzylamino)-6-(3,5-dimethylisoxazol-4-yl)-2-oxo-1,2-dihydroquinoline-7-carboxamide]
< 100 nM	Cc1noc(C)c1-c1cc2[nH]c(=O)cc(NCc3ccccc3)c2cc1-c1c(C)noc1C [Example 162, 4-(benzylamino)-6,7-bis(3,5-dimethylisoxazol-4-yl)quinolin-2(1H)-one]
< 100 nM	O=c1cc(NCc2cccc(Cl)c2)c2cc(-c3cccnc3)ccc2[nH]1 [Example 163, 4-(3-chlorobenzylamino)-6-(pyridin-3-yl)quinolin-2(1H)-one]
< 100 nM	COc1cncc(-c2ccc3[nH]c(=O)cc(NCc4cccc(Cl)c4)c3c2)c1 [Example 164, 4-(3-chlorobenzylamino)-6-(5-methoxypyridin-3-yl)quinolin-2(1H)-one]
> 1000 nM	COc1ncccc1-c1ccc2[nH]c(=O)cc(NCc3cccc(Cl)c3)c2c1 [Example 165, 4-(3-chlorobenzylamino)-6-(2-methoxypyridin-3-yl)quinolin-2(1H)-one]
< 100 nM	O=c1cc(NCc2cccc(Cl)c2)c2cc(-c3ccncc3)ccc2[nH]1 [Example 166]
< 100 nM	Cn1cc(-c2ccc3[nH]c(=O)cc(NCc4cccc(Cl)c4)c3c2)cn1 [Example 167, 4-(3-chlorobenzylamino)-6-(1-methyl-1H-pyrazol-4-yl)quinolin-2(1H)-one]
< 100 nM	Cc1noc(C)c1-c1ccc2[nH]c(=O)cc(NCc3ccccc3)c2c1 [Example 170, 4-(benzylamino)-6-(3,5-dimethylisoxazol-4-yl)quinolin-2(1H)-one]
< 100 nM	COc1ccccc1CNc1cc(=O)[nH]c2ccc(-c3c(C)noc3C)cc12 [Example 171]
< 100 nM	Cc1noc(C)c1-c1ccc2[nH]c(=O)cc(NCc3ccccc3F)c2c1 [Example 172]
< 100 nM	Cc1noc(C)c1-c1ccc2[nH]c(=O)cc(N[C@H](C)c3ccccc3)c2c1 [Example 173]
100 to 1000 nM	Cc1noc(C)c1-c1ccc2[nH]c(=O)cc(NCc3cccnc3)c2c1 [Example 175]
